The source of these data is patent publication US20250011351A1, “[…] O-ACETYLPSILOCIN, SALTS AND SOLID STATE FORMS THEREOF” (Terran Biosciences Inc., priority 2021, published 2025).

Entries after “also recorded” stand apart in the source; their conditions may differ.

Series [1] can be described thus: Humidity exposure (RH jars, hygroscopicity test; handling at ambient humidity). The class given is physicochemical. The protocol:
Solids deliquesced within approx. 1 hour of exposure to elevated relative humidity. The sample was capped and placed in a freezer for storage.

The target of another series is T1, 5-HT2A receptors (Mus musculus, UniProt P35363).
T1 construct: from tissue; host or cells: whole living C57BL/6J mice (in vivo behavioural assay)
In words: Psilocybin-induced head-twitch response in mice, antagonist given i.v. 7 min after psilocybin. It is filed as in vivo, C57BL/6J mice. To be noted: for effect on psilocybin-induced head-twitch response: cumulative head twitches until 40 min, groups of 3 mice; for effect on psilocybin-induced head twitch, summary of Examples 13-21: antagonist administered after psilocybin, compared to vehicle-treated mice, dose not restated; for Result (suppression of psilocybin-induced head twitch): 5HT2A antagonist i.v. at T=7 min.
From the text: The head-shake response is elicited by a wide variety of known hallucinogens such as LSD, psilocybin, psilocin, N,N-dimethyltryptamine (DMT), and mescaline as well as serotonin-releasing agents and direct 5-HT2 agonists. […] Later studies have confirmed 5-HT2A receptors are the primary, direct mediators of the response and that the headshake response in rats is essentially the same as head-twitches in mice, at least in regards to similarity in appearance and 5-HT2A receptor dependence.
Male C57BL/6J mice (approximately 25 g) were group housed. Animals were maintained under a 12 h light/dark cycle, at 23° C. with humidity controlled.
(§1) At T=−60 min, C57BL/6J mice were individually housed into transparent observation cages with bedding removed and left to habituate. At T=−3 min, mice were placed into heated cages at 40° C. At T=0 h, groups of 3 mice were dosed intraperitoneally with psilocybin (2 mg/kg). Following dosing, mice were replaced into the heated cages and head-twitch responses continuously scored for 7 min. After 7 min, mice were intravenously dosed via the lateral tail vein with either vehicle 1 (saline) or volinanserin 1 mg/kg in 5 mL/kg dosing volumes. Mice were replaced into the observation cages and head twitch behavior were monitored until 40 min after agonist dosing. Cumulative head-twitches were measured every 2 minutes until 40 minutes after agonist dosing.
as §1, with “min. […]” for “min. After 7 min, mice were intravenously dosed via the lateral tail vein with either vehicle 1 (saline) or volinanserin 1 mg/kg in 5 mL/kg dosing volumes.”, “behavior was” for “behavior were”, “Cumulative head-twitch behavior was” for “Cumulative head-twitches were”
as §1, with “min. […]” for “min. After 7 min, mice were intravenously dosed via the lateral tail vein with either vehicle 1 (saline) or volinanserin 1 mg/kg in 5 mL/kg dosing volumes.”, “behavior was” for “behavior were”, “Cumulative head-twitch behavior was” for “Cumulative head-twitches were”
as §1, with “min. […]” for “min. After 7 min, mice were intravenously dosed via the lateral tail vein with either vehicle 1 (saline) or volinanserin 1 mg/kg in 5 mL/kg dosing volumes.”, “behavior was” for “behavior were”, “Cumulative head-twitch behavior was” for “Cumulative head-twitches were”
as §1, with “min. […]” for “min. After 7 min, mice were intravenously dosed via the lateral tail vein with either vehicle 1 (saline) or volinanserin 1 mg/kg in 5 mL/kg dosing volumes.”, “behavior was” for “behavior were”, “Cumulative head-twitch behavior was” for “Cumulative head-twitches were”
At T=−60 min, C57BL/6J mice were individually housed into transparent observation cages with bedding removed and left to habituate.

[2] abbreviates: antagonist 1 mg/kg i.v. 7 min after psilocybin 2 mg/kg i.p.
The mark [3] stands for this setting: psilocybin 2 mg/kg i.p., head twitches scored to 40 min.

T1 sequence (P35363 whole entry): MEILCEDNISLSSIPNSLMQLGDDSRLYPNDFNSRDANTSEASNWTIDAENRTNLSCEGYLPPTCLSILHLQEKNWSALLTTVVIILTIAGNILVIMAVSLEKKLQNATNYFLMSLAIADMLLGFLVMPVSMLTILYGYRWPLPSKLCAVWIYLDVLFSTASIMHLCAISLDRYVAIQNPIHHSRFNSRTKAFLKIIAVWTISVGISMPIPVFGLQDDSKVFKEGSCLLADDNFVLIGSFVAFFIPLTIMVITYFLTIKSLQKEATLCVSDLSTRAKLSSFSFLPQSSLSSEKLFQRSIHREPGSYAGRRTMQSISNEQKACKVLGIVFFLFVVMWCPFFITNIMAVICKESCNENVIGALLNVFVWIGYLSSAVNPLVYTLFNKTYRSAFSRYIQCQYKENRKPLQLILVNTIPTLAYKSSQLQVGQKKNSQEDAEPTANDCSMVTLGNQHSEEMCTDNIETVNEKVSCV

Turning to `CC(=O)Oc1cccc2[nH]cc(CCN(C)C)c12.O=C(O)/C=C\C(=O)O` [non-crystalline maleate salt, O-acetyl psilocin maleate], in series [1] (ambient relative humidity (50% RH in summertime)), the “physical stability of the non-crystalline material” value was “unstable”.
For Psilocybin Mesylate, in series [1] (ambient humidity (~50-60%)), the “behaviour when handled at ambient humidity” value is “became tacky and deliquesced”.
Consider `CC(=O)Oc1cccc2[nH]cc(CCN(C)C)c12.Cl` [O-acetyl psilocin hydrochloride], for which the time to deliquescence in series [1] (open vial inside a 75% RH jar (hygroscopicity test)) is ≤ 1 h.
With `CC(=O)Oc1cccc2[nH]cc(CCN(C)C)c12.O=P(O)(O)O` [phosphate salt (Forms A+B), O-acetyl psilocin phosphate], the deliquescence result in series [1] (65% RH) is “deliquesce”. In addition, the hygroscopicity entry in series [1] (evaluation using RH jars) was “low”.
`COc1cccc([C@H](O)C2CCN(CCc3ccc(F)cc3)CC2)c1OC` [volinanserin]: on 5-HT2A receptors (setting [2]), the “effect on psilocybin-induced head-twitch response” value is on record as “completely suppressed”. Moreover, on 5-HT2A receptors, the “effect on psilocybin-induced head twitch, summary of Examples 13-21” value is on record as “full ending”. Further, on 5-HT2A receptors (setting [3]), the “Result (suppression of psilocybin-induced head twitch)” value was “Full suppression of head twitch”.
For `O=C(c1ccc(F)cc1)C1CCN(CCn2c(=O)[nH]c3ccccc3c2=O)CC1` [ketanserin], the “effect on psilocybin-induced head-twitch response” value at 5-HT2A receptors (antagonist 2 mg/kg i.v. 7 min after psilocybin 2 mg/kg i.p.) is “completely suppressed”.
As to `COc1ccc(NC(=O)Nc2ccc(F)cc2F)cc1-c1c(Br)cnn1C` [nelotanserin], the “effect on psilocybin-induced head-twitch response” value on 5-HT2A receptors (setting [2]) is reported as “partially suppressed”; at 5-HT2A receptors (antagonist 4 mg/kg i.v. 7 min after psilocybin 2 mg/kg i.p.), “completely suppressed; also recorded: completed suppressed”. In addition, at 5-HT2A receptors, the “effect on psilocybin-induced head twitch, summary of Examples 13-21” value was “partial suppression”. Also, the “Result (suppression of psilocybin-induced head twitch)” value at 5-HT2A receptors (setting [3]) was “Partial suppression of head twitch,”. The “Result (suppression of psilocybin-induced head twitch) at high dose” value at 5-HT2A receptors (psilocybin 2 mg/kg i.p., antagonist at high dose (4 mg/kg) i.v. at T=7 min, head twitches scored to 40 min) was “full suppression at high dose”.
